Tests used:
[1] = tested on: human gastric adenocarcinoma (AGS) cells; experiment: Sulforhodamine B (SRB) cell cytotoxicity assay, AGS cells; type: cell-based; conditions: for viability at 0.24 µg/mL / EC50: Homo sapiens; for viability at 0.24 µg/mL: AGS, 240 ng/mL, Figure 2, read-out: viability (%) in the AGS screen; for viability at 0.24 µg/mL / cytotoxicity against AGS cells at the lowest concentration: 24 h; for cytotoxicity to AGS cells (preliminary screen): 60, 120 and 240 ng/mL, 24 h of incubation; for cytotoxicity against AGS cells at the lowest concentration: 60 ng/mL; for Emax / EC50: AGS cells; for Emax: maximal drug effect on viability rate, 1 = no effect, 0 = fully cytotoxic; for EC50: 24 h of drug treatment, SRB assay
Protocol: (§1) […] The cell lines were expanded, cultured, and maintained at 37 °C in a humid atmosphere with 5% CO2 in modified Dulbecco’s medium (Thermo Fisher Scientific, Waltham, MA, USA), with 10% FBS (Thermo Fisher Scientific, Waltham, MA, USA) and 100 U/mL of the antibiotic mixture penicillin/streptomycin (Thermo Fisher Scientific, Waltham, MA, USA).
(§2) We evaluated the cytotoxicity effects of novel Myrtenal hybrids against on cells by the sulforhodamine B (SRB) assay. Initially, the cells were seeded in 96-well microplates at a density of 2 × 10^4 cells/well. All compounds were initially dissolved in 100% of methanol and prediluted to reduce methanol concentration to 1% or lower in culture medium and added to the cells at different concentrations for 24 h. Then, cells were fixed by adding 10% (w/v) trichloroacetic acid (TCA) (Winkler) in each well and were stained with 0.057% (w/v) Sulforhodamine B (SRB) (Sigma-Aldrich) in 1% (v/v) acetic acid (Winkler). The bound dye was dissolved in 10 mM Tris base (Sigma-Aldrich), and the absorbance was determined at 510 nm using a multiplate reader (Synergy 2, Biotek Instruments). Percentage cell viability was determined using the formula: […]. The absorbance from the wells of the negative control (1% methanol in culture medium) was considered as the 100% viability. EC50 values were determined by regression analysis (R^2 > 0.95) of the corresponding dose response curves of percentage of cell viability and concentration of the compounds. Emax, the maximum effect of the drug at the highest tested concentration were determined using an online calculator (http://www.grcalculator.org/). Emax lies between 1 and 0; a value of 0 corresponds to a fully cytotoxic response.

[2] = tested on: human colon adenocarcinoma (HT-29) cells; experiment: Sulforhodamine B (SRB) cell cytotoxicity assay, HT-29 cells; type: cell-based; conditions: HT29 cells; for Emax: maximal drug effect on viability rate, 1 = no effect, 0 = fully cytotoxic; for EC50: Homo sapiens, HT-29, 24 h of drug treatment, SRB assay
Protocol: as §1, §2

[3] = tested on: human dermal fibroblast (HDF) cells; experiment: Sulforhodamine B (SRB) cell cytotoxicity assay, HDF non-cancer cells; type: cell-based; conditions: 60, 120 and 240 ng/mL, 24 h
Protocol: as §1, §2

primary CD4+ T cells = experiment: Viability and cell count of activated CD4+ T lymphocytes per proliferation cycle (flow cytometry); type: cell-based, human; conditions: compounds added at EC25 48 h after activation, incubated four days; for viability of non-proliferating CD4+ T cells: cycle 0 and 1; for viability / number of proliferating CD4+ T cells: cycle 2, 3 and 4
Protocol: CD4+ T cells were first stained with a cell tracer dye, a fluorescent reagent that diffuses into cells and binds covalently to intracellular amines, and then with a Live/Dead dye that permeates into cells with damaged membranes, while live cells remain unstained. In addition, counting beads were added into each sample to calculate the exact number of cells per cell cycle (Figure 4A). Then, in order to induce proliferation, fluorescent-labelled CD4+ T cells were activated with anti-CD3/CD28 beads, which mimic physiological T cell receptor triggering and co-stimulation in T lymphocytes. After activation, a proportion of cells proliferated, while some stayed in a non-proliferative state. […] Myrtenyl derivatives were added after the second day of culture to evaluate their effect on non-proliferating CD4+ T cells at cycle 0 and 1 and in proliferating cells in cycle 2, 3, and 4. Live CD4+ T cells activated in the presence of five Myrtenyl derivatives were counted and results were normalized with the control sample per cell cycle.
CD4+ T cells were obtained from peripheral blood from healthy volunteers. Blood samples were diluted 1:2 with PBS before adding 50 μL/mL of RosettSep Human CD4+ T cell enrichment cocktail (STEM CELL) for 20 min at room temperature. After incubation, samples were diluted again 1:4 with PBS and CD4+ T cells were obtained directly from the mononuclear fraction obtained after Ficoll–Hypaque density gradient centrifugation. CD4+ T cells were washed twice, counted, and resuspended in PBS. CD4+ T cells were then stained with 1 μM Cell Trace Violet Cell Proliferation Kit (Invitrogen, Thermo Fisher Scientific, Waltham, MA, USA) for 20 min at 37 °C, protected from light. Unbound dye was quenched by adding cold FCS for 5 min at 4 °C. CD4+ T cells were washed two times and resuspended in X–VIVO (Gibco) with IL–2 (50 U/mL, ProLeukin). Cells (2 × 10^5) were activated for 48 h with CD3/CD28 Dynabeads (Invitrogen) prior to adding the compounds. After 48 h, compounds were added (EC25) and incubated for four days. To analyze proliferation and viability, cells were stained with Live/Dead fixable far red dead cell staining kit (Invitrogen) for 30 min at 4 °C and counting beads were added before acquisition. Cells were acquired on an LSRFortessa X20 (BD) within 24 h. Data were analyzed using FlowJo (Tree Star, Inc., Ashland, OR, USA).

[4] = tested on: human breast adenocarcinoma (MCF-7) cells; experiment: Sulforhodamine B (SRB) cell cytotoxicity assay, MCF-7 cells; type: cell-based; conditions: for EC50: Homo sapiens, MCF7, 24 h of drug treatment, SRB assay; for Emax: maximal drug effect on viability rate, 1 = no effect, 0 = fully cytotoxic
Protocol: as §1, §2

[5] = tested on: AGS, MCF-7 and HT-29 cells; experiment: SRB cytotoxicity assay, summary over the three cancer cell lines; type: cell-based; conditions: Homo sapiens, MCF-7 and HT-29, 24 h, read-out: EC50 range over the cancer cell lines
Protocol: as §1
as §2, with “All compounds were initially dissolved in 100% of methanol and prediluted to reduce methanol concentration to 1% or lower in culture medium and added to the cells at different concentrations for 24 h. Then, cells were fixed by adding 10% (w/v) trichloroacetic acid (TCA) (Winkler) in each well and were stained with 0.057% (w/v) Sulforhodamine B (SRB) (Sigma-Aldrich) in 1% (v/v) acetic acid (Winkler).” left out, “Emax lies between 1 and 0; a value of 0 corresponds to a fully cytotoxic response.” left out

| Structure (SMILES) | viability at 0.24 µg/mL [1] | cytotoxicity to AGS cells (preliminary screen) [1] | Emax [2] | EC50 [2] | cytotoxicity against AGS cells at the lowest concentration [1] | Emax [1] | EC50 [1] | effect on HDF viability (preliminary screen) [3] | viability of non-proliferating CD4+ T cells at cycle 0 (primary CD4+ T cells) | viability of non-proliferating CD4+ T cells (primary CD4+ T cells) | viability / number of proliferating CD4+ T cells (primary CD4+ T cells) | EC50 [4] | Emax [4] | viability of proliferating CD4+ T cells at cycle 4 (primary CD4+ T cells; cycle 4) | EC50 [5] |
| --- | --- | --- | --- | --- | --- | --- | --- | --- | --- | --- | --- | --- | --- | --- | --- |
| C#CCN(C(C)=O)C(C(=O)NC1CCCCC1)C1=CC[C@H]2C[C@@H]1C2(C)C (mixture of isomers) [1c, N-cyclohexyl-2-((1R,5S)-6,6-dimethylbicyclo[3.1.1]hept-2-en-2-yl)-2-(N-(prop-2-yn-1-yl)acetamido) acetamide] | 40% |  |  |  |  |  |  |  |  |  |  |  |  |  |  |
| CC(=O)N(CC#CC#CCN(C(C)=O)C(C(=O)NC1CCCCC1)C1=CC[C@H]2C[C@@H]1C2(C)C)C(C(=O)NC1CCCCC1)C1=CC[C@H]2C[C@@H]1C2(C)C (mixture of isomers) [4b, 2,2′-[hexa-2,4-diyne-1,6-diylbis(acetylazanediyl)]-bis[N-cyclohexyl-2-((1R,5S)-6,6-dimethylbicyclo[3.1.1]hept-2-en-2-yl)acetamide]] |  | not cytotoxic |  |  |  |  |  |  |  |  |  |  |  |  |  |
| CC(=O)N(Cc1ccccc1)C(C(=O)NC1CCCCC1)C1=CC[C@H]2C[C@@H]1C2(C)C (stereo partly drawn) [1a, 2-(N-benzylacetamido)-N-cyclohexyl-2-((1R,5S)-6,6-dimethylbicyclo[3.1.1]hept-2-en-2-yl)acetamide] |  |  | 0.1 | 68 nM | high cytotoxicity | 0.1 | 46 nM | without affecting HDF viability | more cytotoxic than 3c | reduced viability | reduced viability | 65 nM | 0.1 |  |  |
| C#CCN(CC(=O)NC1CCCCC1)C(=O)C1=CC[C@H]2C[C@@H]1C2(C)C [2c, (1R,5S)-N-[2-(cyclohexylamino)-2-oxoethyl]-6,6-dimethyl-N-(prop-2-yn-1-yl)bicyclo[3.1.1]hept-2-ene-2-carboxamide] | 60% |  |  |  |  |  |  |  |  |  |  |  |  |  |  |
| Cc1ccc(-n2cc(CN(CC(=O)NC3CCCCC3)C(=O)C3=CC[C@H]4C[C@@H]3C4(C)C)nn2)cc1 [3a, (1R,5S)-N-[2-(cyclohexylamino)-2-oxoethyl]-6,6-dimethyl-N-{[1-(p-tolyl)-1H-1,2,3-triazol-4-yl]methyl} bicyclo[3.1.1]hept-2-ene-2-carboxamide] |  |  | 0.3 | 59 nM | high cytotoxicity | 0.1 | 50 nM | without affecting HDF viability | more cytotoxic than 3c | reduced viability | reduced viability | 24 nM | 0.3 |  |  |
| CC1(C)[C@H]2CC=C(C(=O)N(CC(=O)NC3CCCCC3)Cc3cn(-c4cccc(Cl)c4)nn3)[C@@H]1C2 [3b, (1R,5S)-N-{[1-(3-chlorophenyl)-1H-1,2,3-triazol-4-yl]methyl}-N-[2-(cyclohexylamino)-2-oxoethyl]-6,6-dimethylbicyclo[3.1.1]hept-2-ene-2-carboxamide] |  |  | 0.4 | 21 ± 7 nM | high cytotoxicity | 0.2 | 49 ± 8 nM | without affecting HDF viability |  | did not reduce viability | able to reduce number of proliferating cells | 24 ± 7 nM | 0.5 |  |  |
| COc1ccc(-n2cc(CN(CC(=O)NC3CCCCC3)C(=O)C3=CC[C@H]4C[C@@H]3C4(C)C)nn2)cc1 [3c, (1R,5S)-N-[2-(cyclohexylamino)-2-oxoethyl]-N-{[1-(4-methoxyphenyl)-1H-1,2,3-triazol-4-yl]methyl}-6,6-dimethylbicyclo[3.1.1]hept-2-ene-2-carboxamide] |  |  | 0.4 | 38 nM | high cytotoxicity | 0.1 | 75 nM | without affecting HDF viability |  | reduced viability | reduced viability | 38 nM | 0.4 |  |  |
| CC1(C)[C@H]2CC=C(Cn3cc(CN(CC(=O)NC4CCCCC4)C(=O)C4=CC[C@H]5C[C@@H]4C5(C)C)nn3)[C@@H]1C2 [3d, (1R,5S)-N-[2-(cyclohexylamino)-2-oxoethyl]-N-({1-[((1R,5S)-6,6-dimethylbicyclo[3.1.1]hept-2-en-2-yl)methyl]-1H-1,2,3-triazol-4-yl}methyl)-6,6-dimethylbicyclo[3.1.1]hept-2-ene-2-carboxamide] |  |  | 0.1 | 33 nM | high cytotoxicity | 0.1 | 33 nM | without affecting HDF viability | did not reduced viability |  |  | 22 nM | 0.1 | lowest capacity to reduce viability | 22 to 33 nM |
| CC(=O)OC[C@@H]1O[C@H](n2cc(CN(CC(=O)NC3CCCCC3)C(=O)C3=CC[C@H]4C[C@@H]3C4(C)C)nn2)[C@@H](OC(C)=O)[C@H](OC(C)=O)[C@H]1OC(C)=O [3e, (2S,3S,4R,5S,6S)-2-(acetoxymethyl)-6-[4-({(1R,5S)-N-[2-(cyclohexylamino)-2-oxoethyl]-6,6-dimethylbicyclo [3.1.1]hept-2-ene-2-carboxamido}methyl)-1H-1,2,3-triazol-1-yl]tetrahydro-2H-pyran-3,4,5-triyl triacetate] |  |  |  |  | low activity |  |  |  |  |  |  |  |  |  |  |
| CC1(C)[C@H]2CC=C(C(=O)N(CC#CC#CCN(CC(=O)NC3CCCCC3)C(=O)C3=CC[C@H]4C[C@@H]3C4(C)C)CC(=O)NC3CCCCC3)[C@@H]1C2 [4a, (1R,1′R,5S,5′S)-N,N′-(hexa-2,4-diyne-1,6-diyl)-bis{N-[2-(cyclohexylamino)-2-oxoethyl]-6,6-dimethylbicyclo [3.1.1]hept-2-ene-2-carboxamide}] |  | not cytotoxic |  |  |  |  |  |  |  |  |  |  |  |  |  |

Reference: PMC7221699, “Synthesis and Cytotoxic Analysis of Novel Myrtenyl Grafted Pseudo-Peptides Revealed Potential Candidates for Anticancer Therapy” (Molecules, 2020)
